These results are taken from patent publication US20110166206A1, “UBIQUILIN REGULATION OF PRESENILIN ENDOPROTEOLYSIS, AND SUPPRESSION OF POLYGLUTAMINE-INDUCED TOXICITY IN CELLS” (UNIVERSITY OF MARYLAND BIOTECHNOLOGY INSTITUTE, priority 2005, published 2011).

Assay [1] concerns PS2 NTF. As to the kind of experiment: Proteasome inhibitor treatment of PS2 inducible cells, PS2 NTF immunoblot. It counts as cell-based, human. The note with it: 16 h treatment. Here is the method:
(§1) (A) PS1 and PS2 inducible cells were treated with various classes of proteasome inhibitors for 16 hours. Afterwards, cell lysates were collected, separated by SDS-PAGE, and analyzed by immunoblotting. PS1 NTF levels and PS2 NTF levels were reduced by treatment with all of the different inhibitors albeit to varying extents.
(§2) PS2 inducible cells were treated for 16 h with 10 uM clasto-lactacystin β-lactone, N-Acetyl-Leu-Leu-Nle-CHO (ALLN), 50 uM epoxomicin, 40 uM MG132, and […]. Afterwards, lysates were collected and the fragment levels were analyzed by SDS-PAGE and immunoblotting.
(§3) First, to rule out that MG132 inhibits another factor involved in PS cleavage, PS1 and PS2 inducible cells were treated with a series of different known proteasome inhibitors including clasto-lactacystin p-lactone, ALLN, epoxomicin, MG132, and MG262. […] While each inhibitor had varying effects on the extent of reduction, PS1 NTF levels were reduced by an average of 1.3-fold and PS2 NTF levels were reduced by an average of 1.4-fold. At first glance the fold reduction appears modest; however, considering that degradation of the PS fragments by the proteasome has also been blocked and that fragment levels are tightly regulated, the reduction in PS fragment levels appears significant. Furthermore, it was considered unlikely that all […] proteasome inhibitors used here caused nonspecific inhibition of an unknown factor involved in PS endoproteolysis. Instead, it was considered that the most straightforward interpretation of the results is that, in accord with the mode of action the drugs, they all inhibit the proteasome, which is involved in PS endoproteolysis.
For orientation: Immunoblotting shows a protein as a band on a membrane.

The subject of assay [2] is PS1 NTF. The assay is described as follows: Proteasome inhibitor treatment of PS1 inducible cells, PS1 NTF immunoblot. It counts as cell-based. Conditions: 16 h treatment. Here is the method: as §1, §2, §3
The test system of assay [3] is PS2 NTF. The assay is described as follows: Proteasome inhibitor wash-out time course with CHX in PS2 stable cells. Format: cell-based, human. On the procedure: (B) PS2 inducible cells were treated continuously with MG132 or MG262 or the drugs were washed from half the cultures after 7 hours of incubation with the drugs. Immediately after washing, CHX was added to all of the cultures to inhibit protein synthesis. Lysates were collected at two hour time points thereafter and the PS fragment levels were analyzed by SDS-PAGE and subsequent immunoblotting. […] Please note that because PS2 expression was not been induced with PonA, the FL protein is not detectable. The filter was reprobed with anti-p27 antibody to monitor recovery of proteasome activity. p27 has a half-life of two hours; therefore once proteasome inhibition is relieved the level of p27 begins to decline (third panel, right), whereas under constant proteasome inhibition its levels remain steady (third panel, left), serving as an important control.
(C) Densitometric analysis was used to quantify the extent of increase in PS2 NTF levels in conditions of constant proteasome inhibition and upon removal of proteasome inhibition. At time=0 the NTF levels in the washed sample is equal to that of MG132 treated sample; however, NTF levels quickly begin to […], whereas in the MG132 treated samples PS2 NTF levels stay steady.
PS2 inducible cells were grown in two sets on […]. Both sets were treated with MG132 or MG262 (also called Z-Leu-Leu-Leu-B(OH)2, Boston Biocem). 7 h later, the drugs were washed off one set by rinsing twice with warm 1×PBS and replacing with fresh DMEM supplemented with 10% FBS, allowing the proteasomes to recover. Also at that point, cyclohexamide (final cont. […]) was added to all dishes. Lysates were collected at two hour time points and the fragment levels were analyzed by SDS-PAGE and subsequent immunoblotting.
To directly address whether the proteasome is responsible for endoproteolysis of PS2, another time course experiment utilizing proteasome inhibitors was devised. […]

The test system of assay [4] is PS1 and PS2 NTF and CTF. The assay is described as follows: MG132 treatment of UBQLN-transfected PS1 and PS2 stable cell lines, fragment immunoblot. It counts as cell-based. The note with it: proteasome inhibitor treatment. Here is the method: FIG. 3. […] (A) PS1 cells lines that were either not induced (lanes 1 and 3) or induced with PonA (lanes 2 and 4) and either left untransfected (lanes 1 and 2) or transfected with UBQLN1 expression plasmids (lanes 3 and 4) were treated for 7 h with MG132 after which protein lysates were collected and analyzed by immunoblotting. […] For clarification, if UBQLN did increase the turnover rate then by blocking degradation, turnover would be stopped and PS fragment levels would be similar, or increase, relative to that of untransfected cells. […] Densitometric analysis was used to quantify the extent of reduction. Each experiment was repeated more than three times and similar trends were observed.
(B) Same experiment and results as described in (A) except that PS2 inducible cell lines were used to examine PS2 NTF and CTF levels. […] UBQLN exerts greater effects on PS2 probably because it interacts more strongly with PS2, see [43].
HeLa and HEK293 cells were grown in DMEM supplemented with 10% FBS. PS1 and S2 inducible cell lines were generated by transfection of the pERV-expressing HEK293 cell line (Stratgene, IaIolla, Calif.) with FL human PS2 cDNA under the control of ponasteroneA (PonA)-inducible cassette in plasmid pEGSH (Stratagene). Stable integration of the pEGSH plasmid was achieved by selection for hygromycin resistance. […]

Assay [5] has as its system endogenous PS1 NTF. The assay is described as follows: UBQLN overexpression in wild-type HEK293 cells, endogenous PS1 NTF immunoblot. Format: cell-based. The note with it: normal HEK293 cells. Here is the method: (C) Endogenous PS fragment levels were analyzed in HEK293 cells that were transfected with increasing amounts of UBQLN1 or UBQLN2 expression plasmids. Equivalent amounts of protein lysates were separated by 10% SDS-PAGE and immunoblotted with anti-PS1 NTF antibody. The filter was then reprobed with anti-ubiquilin antibody to ensure overexpression of UBQLN and with an anti-actin antibody to ensure equal protein loading. Overexpression of UBQLN decreases PS1 NTF levels and the extent of reduction was quantified again by densitometric analysis. Graph is quantification of untransfected and […] UBQLN cDNA plasmid transfected lanes.
Preparation of protein lysates, SDS-PAGE and immunoblotting of proteins were described previously. Primary antibodies used were rabbit anti-PS2 loop and rabbit anti-PS2 NH,-terminus, both raised to GST-PS2 fusion proteins; rabbit anti-ubiquilin [43] which reacts with UBQLN1 and UBQLN2 polypeptides; rat anti-PS1 NH2,-terminus (Chemicon International, Temecula, Calif.); rabbit anti-PS1 loop raised to GST-PS1 fusion proteins; goat anti-p27 and goat anti-actin (Santa Cruz Biotechnology, Santa Cruz, Calif.); mouse monoclonal anti-tubulin (Sigma-Aldrich, St. Louis, Mo.); rabbit anti-nicastrin (Abeam, Cambridge, Mass.), rabbit anti-Pen-2 (Zymed, San Francisco, Calif.); and rabbit anti-Aph-la (Covance, Berkeley, Calif.). […]

Square brackets hold non-standard residues; d marks the D form. Peptide text beside a SMILES is read from it. * marks the point of attachment. Nle = CCCC[C@H](N)C(=O)O; Cbz = O=C(OCc1ccccc1)*

With `CCCC[C@@H](C=O)NC(=O)[C@H](CC(C)C)NC(=O)[C@H](CC(C)C)NC(C)=O` [ALLN, N-Acetyl-Leu-Leu-Nle-CHO] (Ac-Leu-Leu-[Nle]-aldehyde), the “PS2 NTF levels” value in assay [1] is reported as “reduced”. Also, the “PS1 NTF levels” value in assay [2] is on record as “reduced”.
In the case of `CC(C)C[C@@H](C=O)NC(=O)[C@H](CC(C)C)NC(=O)[C@H](CC(C)C)NC(=O)OCc1ccccc1` [MG132] (Cbz-Leu-Leu-Leu-aldehyde), the “rise in PS2 NTF levels after inhibitor washed out” value in assay [3] (12 hours after wash-out, CHX added) is recorded as 1.8 fold. In addition, the “PS2 NTF levels under continuous inhibitor” value in assay [3] (inhibitor present for the continuous duration) is “remained relatively constant”. For the same molecule, the “PS2 NTF levels” value in assay [1] is recorded as “reduced”. Also, in assay [2], the “PS1 NTF levels” value is “reduced”. Further, the “PS fragment levels, MG132 treated vs MG132 untreated cells” value in assay [4] was “reduced PS fragment levels”.
`CC(C)C[C@H](NC(=O)[C@H](CC(C)C)NC(=O)[C@H](CC(C)C)NC(=O)OCc1ccccc1)B(O)O` [MG262, Z-Leu-Leu-Leu-B(OH)2]: the “PS2 fragments after removal of inhibitor” value in assay [3] (proteasomes recover activity) was “notable increase in PS2 fragments”. Further, the “PS2 NTF levels” value in assay [1] is “reduced”. Further, the “PS1 NTF levels” value in assay [2] is “reduced”.
On to `CC(C)[C@H](O)[C@@]12NC(=O)[C@H](C)[C@@H]1OC2=O` [clasto-lactacystin p-lactone, clasto-lactacystin β-lactone], for which the “PS2 NTF levels” value in assay [1] is recorded as “reduced”. The “PS1 NTF levels” value in assay [2] is “reduced”.
Turning to `CC[C@H](C)[C@H](NC(=O)[C@H]([C@@H](C)CC)N(C)C(C)=O)C(=O)N[C@H](C(=O)N[C@@H](CC(C)C)C(=O)[C@@]1(C)CO1)[C@@H](C)O` [epoxomicin], in assay [1], the “PS2 NTF levels” value is given as “reduced”. In addition, in assay [2], the “PS1 NTF levels” value is listed as “reduced”.
“UBQLN2: ubiquilin-2, 72% identical to UBQLN1, overexpressed from an expression plasmid”: in assay [5], the “reduction of endogenous PS1 NTF levels” value is “approximately 1.7 fold”.
